US10711006B2, “Selective Bruton's tyrosine kinase inhibitor and use thereof” (HANGZHOU HERTZ PHARMACEUTICAL CO., LTD., priority 2016, dated 2020)

Legend:
FGR = FGR (Homo sapiens (Human), UniProt P09769); assay: Kinase selectivity experiment, FGR; format: biochemical; conditions: read-out: Inhibitory activity against FGR (IC50)
Experimental: (§1) A 1× kinase base buffer and a reaction stop buffer for respective kinases in the experiment were prepared as required.
(§2) Preparation of Compounds to be Tested:
(§3) 2) diluting each compound at a 5-fold concentration gradient in a 96-well plate to 6 to 7 concentrations and ensuring that the drug volume in each well was 10 μl; and at the same time adding 100 μl of DMSO to prepare a blank control group and also preparing a negative control group without the enzyme substrate; and
(§4) 3) preparing another 96-well plate, adding 10 μl of each of the above compounds to 90 μl of the 1× kinase base buffer and mixing for 10 minutes to be uniform.
(§5) Preparation of the Plate to be Tested:
(§6) 1) 5 μl of the mixed solution prepared as above in the 96-well plate was taken and transferred to a 384-well plate, with two replicate wells for each compound.
(§7) 1) Preparing a 2.5× kinase solution and adding a corresponding 1× kinase base buffer;
(§8) 2) preparing a 2.5× polypeptide solution and adding FAM-labeled polypeptide and ATP in the 1× kinase base buffer; and
(§9) 3) adding 10 μl of 2.5× kinase solution to a 384-well plate to be tested, placing in a room-temperature environment for 10 minutes, and then adding 10 μl of the 2.5× polypeptide solution, reacting at 28° C. for 1 hour, and then adding 25 μl of a reaction stop buffer.
(§10) The Caliper program reads the plate and uses the data to obtain the IC50 values of the corresponding compounds against kinases.

ITK = ITK (Homo sapiens (Human), UniProt Q08881); assay: Kinase selectivity experiment, ITK; format: biochemical; conditions: read-out: Inhibitory activity against ITK (IC50)
ITK, sequence (Q08881 whole entry, species assumed): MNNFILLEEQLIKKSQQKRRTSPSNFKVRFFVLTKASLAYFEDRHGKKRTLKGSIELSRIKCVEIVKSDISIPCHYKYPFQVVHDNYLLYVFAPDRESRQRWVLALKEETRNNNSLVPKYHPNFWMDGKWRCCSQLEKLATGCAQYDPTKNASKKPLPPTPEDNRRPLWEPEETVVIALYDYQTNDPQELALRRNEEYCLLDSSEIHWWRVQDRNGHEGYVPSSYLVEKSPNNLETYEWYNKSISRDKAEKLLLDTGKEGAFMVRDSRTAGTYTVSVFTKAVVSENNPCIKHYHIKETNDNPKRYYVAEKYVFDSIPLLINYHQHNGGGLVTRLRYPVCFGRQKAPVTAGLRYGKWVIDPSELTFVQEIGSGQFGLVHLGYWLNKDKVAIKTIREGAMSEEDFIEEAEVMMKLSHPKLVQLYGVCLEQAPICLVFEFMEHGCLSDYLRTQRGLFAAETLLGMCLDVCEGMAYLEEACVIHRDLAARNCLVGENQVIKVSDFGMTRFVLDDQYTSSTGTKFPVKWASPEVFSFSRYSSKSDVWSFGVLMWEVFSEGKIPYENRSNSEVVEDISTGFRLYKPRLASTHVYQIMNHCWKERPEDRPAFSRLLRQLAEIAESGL
Experimental: as §1, §2, §3, §4, §5, §6, §7, §8, §9, §10

HCK = HCK (Homo sapiens (Human), UniProt P08631); assay: Kinase selectivity experiment, HCK; format: biochemical; conditions: read-out: Inhibitory activity against HCK (IC50)
HCK, sequence (P08631 whole entry, species assumed): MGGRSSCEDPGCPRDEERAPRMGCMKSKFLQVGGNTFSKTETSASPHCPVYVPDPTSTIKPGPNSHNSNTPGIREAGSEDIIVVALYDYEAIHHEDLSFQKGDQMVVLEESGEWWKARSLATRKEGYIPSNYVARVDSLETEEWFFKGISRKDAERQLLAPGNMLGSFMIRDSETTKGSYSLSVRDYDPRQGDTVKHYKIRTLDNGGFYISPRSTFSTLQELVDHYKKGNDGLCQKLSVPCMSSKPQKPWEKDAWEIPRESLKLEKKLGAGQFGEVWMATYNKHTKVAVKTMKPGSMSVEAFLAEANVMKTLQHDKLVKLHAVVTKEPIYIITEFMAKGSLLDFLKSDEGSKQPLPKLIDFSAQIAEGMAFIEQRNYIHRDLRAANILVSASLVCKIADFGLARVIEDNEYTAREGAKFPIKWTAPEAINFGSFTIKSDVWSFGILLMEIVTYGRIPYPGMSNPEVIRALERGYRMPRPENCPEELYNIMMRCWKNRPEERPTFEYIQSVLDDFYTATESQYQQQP
Experimental: as §1, §2, §3, §4, §5, §6, §7, §8, §9, §10

[1] = test system: diffuse giant B-cell lymphoma (OCI-LY10); assay: In-vitro tumor cell proliferation inhibition (CCK-8), OCI-LY10; conditions: Homo sapiens, OCI-Ly10, 72 h, read-out: Tumor cell proliferation inhibitory activity (IC50, nM) OCI-LY10
Experimental: (§11) The in-vitro antitumor activity assay was carried out on the synthesized compound by using different solid tumors and leukemia cell lines:
(§12) Cell lines: human lung cancer cell (A549), human mantle cell lymphoma (MINO), diffuse giant B-cell lymphoma (OCI-LY10), and human diffuse large B lymphoma (TMD-8).
(§13) Preparation method of the drug: the drug was dissolved in DMSO to make a 10 mM stock solution, and then the stock solution was diluted in a certain ratio to obtain 5 different concentrations (test concentration 100×). In-vitro culture of tumor cells:
(§14) The tumor cells A549, MINO, OCI-LY10, and TMD-8 were seeded in a 96-well plate at 4000 cells/200 μL/well and then incubated overnight at 37° C. in a 5% CO2 cell culture incubator. 2 μL of the compound was added to each well to final concentrations of 50 μM, 10 μM, 2 μM, 0.4 μM, and 0.08 μM and then incubated for 72 hours at 37° C. in a 5% CO2 cell incubator, with DMSO (2%) as a control group. […] Wells loaded with the corresponding amount of cell culture fluid the and CCK-8 solution but no cells were considered as blank controls. The absorbance (OD value) was measured at 450 nm using a microplate reader, and the obtained data was used to calculate IC50.

[2] = test system: Mino subcutaneous xenograft tumor; assay: In-vivo pharmacodynamic study on Mino subcutaneous xenograft tumor models; conditions: CB17 SCID mice, intragastric, twice a day
Experimental: In CB17 SCID mice, 0.2 mL of cell suspension containing 5×10^6 Mino cells was subcutaneously inoculated into the right back of each mouse, and when the mean tumor volume reaches approximately 139.94 mm3 (day 26 after inoculation), group administration was started (intragastric administration, twice a day, 14 days in total). Animals were monitored daily for health and mortality, and tumor diameters were measured twice a week using vernier calipers to see if tumor growth could be inhibited, delayed, or cured.

FLT3 = FLT3 (Homo sapiens (Human), UniProt P36888); assay: Kinase selectivity experiment, FLT3; format: biochemical; conditions: read-out: Inhibitory activity against FLT3 (IC50)
FLT3, sequence (P36888 27-993, species assumed): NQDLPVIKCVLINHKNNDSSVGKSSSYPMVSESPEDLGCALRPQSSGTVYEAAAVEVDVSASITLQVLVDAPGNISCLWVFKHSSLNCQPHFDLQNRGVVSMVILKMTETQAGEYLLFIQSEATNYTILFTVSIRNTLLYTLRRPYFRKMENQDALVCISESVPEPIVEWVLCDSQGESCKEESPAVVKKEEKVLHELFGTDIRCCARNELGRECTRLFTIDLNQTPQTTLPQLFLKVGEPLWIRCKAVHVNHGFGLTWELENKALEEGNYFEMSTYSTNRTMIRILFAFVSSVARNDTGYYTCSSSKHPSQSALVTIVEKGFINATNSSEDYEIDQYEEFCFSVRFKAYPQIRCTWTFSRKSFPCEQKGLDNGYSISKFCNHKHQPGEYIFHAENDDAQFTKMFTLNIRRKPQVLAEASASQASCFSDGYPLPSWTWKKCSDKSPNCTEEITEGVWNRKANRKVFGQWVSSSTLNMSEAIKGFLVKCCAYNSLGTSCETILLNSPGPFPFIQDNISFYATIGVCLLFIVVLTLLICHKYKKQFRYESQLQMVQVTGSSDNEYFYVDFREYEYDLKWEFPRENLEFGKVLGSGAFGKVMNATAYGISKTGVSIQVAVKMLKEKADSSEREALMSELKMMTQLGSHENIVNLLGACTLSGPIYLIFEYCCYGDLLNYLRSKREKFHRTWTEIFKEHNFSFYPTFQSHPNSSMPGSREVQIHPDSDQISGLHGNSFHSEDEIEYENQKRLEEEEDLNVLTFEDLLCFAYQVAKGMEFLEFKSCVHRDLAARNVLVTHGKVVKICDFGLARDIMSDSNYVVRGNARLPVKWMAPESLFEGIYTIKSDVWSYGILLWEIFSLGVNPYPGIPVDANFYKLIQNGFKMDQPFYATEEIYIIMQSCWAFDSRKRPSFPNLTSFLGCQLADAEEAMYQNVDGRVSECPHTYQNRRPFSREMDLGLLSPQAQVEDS
Experimental: as §1, §2, §3, §4, §5, §6, §7, §8, §9, §10

BLK = BLK (Homo sapiens (Human), UniProt P51451); assay: Kinase selectivity experiment, BLK; format: biochemical; conditions: read-out: Inhibitory activity against BLK (IC50)
BLK, sequence (P51451 whole entry, species assumed): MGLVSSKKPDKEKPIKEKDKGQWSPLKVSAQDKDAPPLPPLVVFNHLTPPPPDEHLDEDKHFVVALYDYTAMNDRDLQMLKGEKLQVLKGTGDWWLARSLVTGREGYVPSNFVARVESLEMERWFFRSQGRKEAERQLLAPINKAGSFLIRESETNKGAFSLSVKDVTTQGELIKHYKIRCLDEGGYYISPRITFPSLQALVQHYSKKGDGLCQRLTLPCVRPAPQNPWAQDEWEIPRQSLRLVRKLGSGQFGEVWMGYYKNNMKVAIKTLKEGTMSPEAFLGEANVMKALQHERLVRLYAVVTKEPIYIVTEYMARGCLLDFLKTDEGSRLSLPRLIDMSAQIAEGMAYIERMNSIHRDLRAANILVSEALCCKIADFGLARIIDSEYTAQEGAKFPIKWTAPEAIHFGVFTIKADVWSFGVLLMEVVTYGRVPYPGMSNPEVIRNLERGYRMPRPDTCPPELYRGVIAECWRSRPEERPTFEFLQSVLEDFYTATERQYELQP
Experimental: as §1, §2, §3, §4, §5, §6, §7, §8, §9, §10

[3] = test system: human diffuse large B lymphoma (TMD-8); assay: In-vitro tumor cell proliferation inhibition (CCK-8), TMD-8; conditions: TMD8, 72 h, read-out: Tumor cell proliferation inhibitory activity (IC50, nM) TMD-8
hERG potassium channel = hERG potassium channel (Homo sapiens (Human), UniProt Q12809); assay: hERG potassium channel inhibitory activity, manual patch clamp in CHO cells; format: cell-based; conditions: CHO cells stably expressing hERG, whole-cell patch clamp
hERG potassium channel, sequence (Q12809 whole entry): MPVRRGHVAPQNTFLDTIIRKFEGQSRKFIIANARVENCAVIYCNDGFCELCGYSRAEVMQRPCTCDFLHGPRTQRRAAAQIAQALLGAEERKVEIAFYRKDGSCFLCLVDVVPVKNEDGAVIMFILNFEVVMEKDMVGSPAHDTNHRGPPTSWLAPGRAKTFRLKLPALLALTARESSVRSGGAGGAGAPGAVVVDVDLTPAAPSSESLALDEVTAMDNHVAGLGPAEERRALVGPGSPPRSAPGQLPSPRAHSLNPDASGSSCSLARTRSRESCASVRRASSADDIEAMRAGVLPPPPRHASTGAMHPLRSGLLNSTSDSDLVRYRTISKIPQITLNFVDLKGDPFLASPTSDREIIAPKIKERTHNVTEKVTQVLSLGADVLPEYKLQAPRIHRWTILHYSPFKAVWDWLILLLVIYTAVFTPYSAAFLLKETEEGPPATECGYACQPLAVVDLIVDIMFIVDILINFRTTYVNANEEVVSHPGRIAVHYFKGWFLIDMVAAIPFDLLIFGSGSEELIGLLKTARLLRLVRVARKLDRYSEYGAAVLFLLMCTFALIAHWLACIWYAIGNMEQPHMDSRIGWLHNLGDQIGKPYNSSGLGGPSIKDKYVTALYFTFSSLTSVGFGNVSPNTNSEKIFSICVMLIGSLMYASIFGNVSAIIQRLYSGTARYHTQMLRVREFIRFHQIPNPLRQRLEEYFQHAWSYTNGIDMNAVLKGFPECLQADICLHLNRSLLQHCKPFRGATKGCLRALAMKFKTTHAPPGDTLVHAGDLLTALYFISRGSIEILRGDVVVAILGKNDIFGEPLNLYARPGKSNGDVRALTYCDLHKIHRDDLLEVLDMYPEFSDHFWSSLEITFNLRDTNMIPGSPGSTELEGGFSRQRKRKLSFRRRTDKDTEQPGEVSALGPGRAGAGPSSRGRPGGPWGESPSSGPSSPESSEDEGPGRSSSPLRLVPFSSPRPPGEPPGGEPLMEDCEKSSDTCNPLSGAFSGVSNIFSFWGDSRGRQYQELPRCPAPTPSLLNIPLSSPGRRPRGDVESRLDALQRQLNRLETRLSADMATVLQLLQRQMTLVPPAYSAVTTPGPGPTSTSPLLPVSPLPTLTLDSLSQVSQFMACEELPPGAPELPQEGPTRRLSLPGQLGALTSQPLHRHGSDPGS
Experimental: The cells used in this experiment were CHO cell lines transfected with HergCdna and stably expressing Herg channels (supplied by Sophion Bioscience, Denmark). The cells were cultured in a medium containing the following components (all from Invitrogen): Ham's F12 medium, 10% (v/v) inactivated fetal bovine serum, 100 μg/ml hygromycin B, 100 μg/ml Geneticin. […] 24 to 48 hours before an electrophysiological experiment, CHO Herg cells were transferred to circular slides placed in the culture dishes and grow with the same culture liquid under the same culture conditions as above. The density of CHO Herg cells on each circular slide was required to reach such a value that most cells were independent and stand alone.
2. Treatment and Dilution of a Compound
Before the test, the compound was first diluted with DMSO at gradient to make stock solutions with concentrations of 10, 3, 1, 0.3 and 0.1 Mm and the stock solutions were then diluted with extracellular fluid to a final Mm test concentration. Except that the DMSO concentration in the 30 Mm compound test solution was 0.3%, the final concentration of DMSO in each of the compound solutions with other concentrations was 0.1%. The test concentration of a positive control Cisapridewas 0.1 Mm. All compound solutions were conventionally sonicated and shaken for 5 to 10 minutes to ensure complete dissolution of the compound.
3. Electrophysiological Recording System and Data Analysis
This experiment uses a manual patch clamp system (HEKA EPC-10 signal amplifier and digital conversion system, purchased from HEKA Electronics, Germany) for the recording of whole cell currents. The circular slides with CHO Herg cells growing on the surfaces were placed in an electrophysiological recording slot under an inverted microscope. The extracellular fluid was used for continuous perfusion in the recording slot (approximately lml per minute). The experimental procedure uses a conventional whole-cell patch clamp current recording technique. Unless otherwise stated, the experiment was carried out at regular room temperature ([…]). The cells were clamped at a voltage of −80 Mv. The cell clamp voltage was depolarized to +20 Mv to activate the Herg potassium channel, and 5 seconds later, it was clamped to −50 Mv to eliminate inactivation and generate tail current. The peak of the tail current was used as the value of the Herg current. After the hERG potassium current recorded in the above step was stabilized under the continuous extracellular fluid perfusion in the recording slot, the drug to be tested can be superimposed to the perfusion until the inhibitory effect of the drug on the hERG current reaches a steady state. Generally, the criterion for determine whether or not the stable state was reached was that the recent three consecutive current recording lines were coincident. After the steady state was reached, extracellular fluid perfusion was carried out for flushing until the hERG current returns to the magnitude before the drug was added. One cell may be used for testing one or more drugs, or multiple concentrations of the same drug, and flushing with extracellular fluid was carried out between tests of different drugs. Cisapride (purchased from Sigma) was used in the experiment as a positive control to ensure that the cells used were of normal quality. The test data was analyzed by data analysis software provided by HEKA Patchmaster, Microsoft Excel and Graphpad Prism.

[4] = test system: arthritis induced by anti-collagen antibodies and lipopolysaccharides; assay: Rheumatoid arthritis model induced by anti-collagen antibodies and lipopolysaccharides; format: in vivo, Balb/c mice
Experimental: In Balb/c mice, arthritis was induced by administration of anti-collagen antibodies and lipopolysaccharides (Nandakumar et al., Am. J. Pathol. 2003, 163: 1827-1837).
The specific method was as follows: On Day 0, female Balb/c mice were intravenously injected with anti-type II collagen ChemicomAb mixture in a dose of 100 mg/kg, and on Day 1, lipopolysaccharide was intraperitoneally injected in a dose of 1.25 mg/kg. From Day 2 to Day 12, Compounds 15a, 17a, 24a and 24e were orally administered once a day in a dose of 10 mg/kg. On Day 13 after abdominal anesthesia, […] of blood was taken from the femoral artery and centrifuged at 3000 r/min for 20 minutes, serum was taken to detect IL-1β with a test kit, and related tissue samples were observed.

[5] = test system: human mantle cell lymphoma (MINO); assay: In-vitro tumor cell proliferation inhibition (CCK-8), MINO; conditions: 72 h, read-out: Tumor cell proliferation inhibitory activity (IC50, μM) MINO
Experimental: as §11, §12, §13, §14

CSK = CSK (Homo sapiens (Human), UniProt P41240); assay: Kinase selectivity experiment, CSK; format: biochemical; conditions: read-out: Inhibitory activity against CSK (IC50)
Experimental: as §1, §2, §3, §4, §5, §6, §7, §8, §9, §10

[6] = test system: human lung cancer cell (A549); assay: In-vitro tumor cell proliferation inhibition (CCK-8), A549; conditions: A549, 72 h, read-out: Tumor cell proliferation inhibitory activity (IC50, μM) A549
Experimental: as §11, §12, §13, §14

JAK3 = JAK3 (Homo sapiens (Human), UniProt P52333); assay: Kinase selectivity experiment, JAK3; format: biochemical; conditions: read-out: Inhibitory activity against JAK3 (IC50)
JAK3, sequence (P52333 whole entry, species assumed): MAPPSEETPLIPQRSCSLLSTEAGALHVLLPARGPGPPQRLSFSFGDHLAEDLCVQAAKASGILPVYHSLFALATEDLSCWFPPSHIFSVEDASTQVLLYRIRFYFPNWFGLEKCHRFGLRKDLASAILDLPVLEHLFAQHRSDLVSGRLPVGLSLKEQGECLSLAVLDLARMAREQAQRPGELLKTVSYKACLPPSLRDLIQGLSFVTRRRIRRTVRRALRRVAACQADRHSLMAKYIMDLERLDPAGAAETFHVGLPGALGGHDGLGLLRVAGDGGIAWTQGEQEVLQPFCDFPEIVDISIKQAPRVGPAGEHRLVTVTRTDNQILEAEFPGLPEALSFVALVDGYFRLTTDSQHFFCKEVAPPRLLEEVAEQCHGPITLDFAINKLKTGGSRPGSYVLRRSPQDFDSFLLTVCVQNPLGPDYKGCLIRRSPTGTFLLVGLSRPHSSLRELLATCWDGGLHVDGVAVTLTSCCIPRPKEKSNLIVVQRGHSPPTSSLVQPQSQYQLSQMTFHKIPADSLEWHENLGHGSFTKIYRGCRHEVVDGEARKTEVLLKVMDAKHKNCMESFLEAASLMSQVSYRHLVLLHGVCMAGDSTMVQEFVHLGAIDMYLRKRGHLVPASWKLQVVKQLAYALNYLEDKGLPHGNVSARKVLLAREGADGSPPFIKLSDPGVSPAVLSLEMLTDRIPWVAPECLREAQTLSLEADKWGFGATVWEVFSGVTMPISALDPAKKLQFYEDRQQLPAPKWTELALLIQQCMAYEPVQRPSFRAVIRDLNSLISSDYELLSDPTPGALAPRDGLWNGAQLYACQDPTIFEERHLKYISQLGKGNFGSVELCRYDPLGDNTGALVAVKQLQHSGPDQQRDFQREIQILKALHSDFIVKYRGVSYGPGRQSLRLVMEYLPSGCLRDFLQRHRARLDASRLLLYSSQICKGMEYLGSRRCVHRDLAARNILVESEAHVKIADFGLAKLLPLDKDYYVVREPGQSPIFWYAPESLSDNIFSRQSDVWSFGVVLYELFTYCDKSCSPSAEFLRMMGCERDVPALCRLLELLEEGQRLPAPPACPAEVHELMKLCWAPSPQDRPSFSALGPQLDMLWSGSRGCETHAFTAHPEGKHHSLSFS
Experimental: as §1, §2, §3, §4, §5, §6, §7, §8, §9, §10

## C=CC(=O)N1CCC[C@@H](n2nc(-c3ccc(Oc4ccccc4)nc3F)c3c(N)ncnc32)C1 [Compound 17a, (R)-1-(3-(4-amino-3-(2-fluoro-6-phenoxypyridin-3-yl)-1H-pyrazolo[3,4-d]pyrimidin-1-yl)piperidin-1-yl)prop-2-en-1-one]
FGR
  IC50: > 1 µM
ITK
  IC50: > 1 µM
HCK
  IC50: > 1 µM
[1]
  IC50: 1.41 nM
[2]
  TGI*(14 days) (%) calculated on the basis of tumor volume: 82.54%
  TGI**(14 days) (%) calculated on the basis of tumor weight: 74.05%
FLT3
  IC50: > 1 µM
BLK
  IC50: 0.011 µM
[3]
  IC50: 5.57 nM
hERG potassium channel
  IC50: 7.8 µM
[4]; 10 mg/kg orally once a day, versus model group
  level of IL-1β in serum (in words): significantly reduce
[4]; serum on Day 13, 10 mg/kg orally once a day Day 2 to Day 12
  IL-1β: 17.25 ± 3.9 ng/L
[4]; tissue samples after treatment, versus model group
  inflammatory cell infiltration, synovial hyperplasia, inflammatory granulation tissue formation, necrotic tissue: significantly improved
[5]
  IC50: 8.62 µM
CSK
  IC50: > 1 µM
[6]
  IC50: 1.67 µM
JAK3
  IC50: > 1 µM
